# Measurements published in patent publication US7192932B1, “Use of immunomodulating agents” (Lauras AS, priority 1997, dated 2007).
# Where “and” joins values, the source holds several entries; their conditions need not be identical. Identical values can stand only once. Entries after “also recorded” stand apart in the source; their conditions may differ. Marks after values point to notes of the source that are not given here.
# Legend:
# Assay type in all cases: cell-based, human
# CD4+ T lymphocytes = test: BrdU incorporation (DNA synthesis) by flow cytometry, CD4+ subset
# Protocol: (§1) We next, by flow cytometry analysis of BrdU incorporation, examined anti-CD3 stimulated T lymphocyte DNA synthesis in the presence and absence of Rp-8-Br-cAMPS in subsets of CD4^+ and CD8^+ T lymphocytes in 8 CVI patients with impaired lymphocyte function and 7 controls. In CVI patients there was a significant increase in percent of BrdU^+ CD4^+ T lymphocytes when cAMP antagonist was added to cell culture [55.8 (40.7–77.0)% versus 69.6 (50.5–90.0)%, without and with antagonist, respectively, P<0.03]. In most patients the maximal increase was found at the highest concentration of Rp-8-Br-cAMPS (1000 μM).
# IL-2 receptor = IL-2 receptor binding in anti-CD3 stimulated T cells (flow cytometry)
# [1] = tested on: peripheral blood CD3+ T cells; test: TCR/CD3 (anti-CD3) stimulated T cell proliferation, [3H]-thymidine incorporation
# Protocol: (§2) Human peripheral blood CD3+ T cells were purified by negative selection from 50 ml of heparin-treated blood from normal healthy donors (Ullevaal University Hospital Blood Center, Oslo. Norway) or patients. Briefly, peripheral blood mononuclear cells were isolated by density gradient (Lymphoprep, NycoMed, Oslo, Norway) centrifugation followed by negative selection using monodisperse magnetic beads directly coated with antibodies to CD14 and CD19 and rat anti-mouse IgG beads coated with antibodies to CD56 and a magnet. Magnetic beads were all from Dynal (Oslo, Norway, cat. no. 111.12, 111.04, and 110.11. respectively) whereas anti-CD56 antibody was from Pharmingen (San Diego, Calif., cat. no. 31660.d). All steps were performed at 4° C.
# as §2, with “Peripheral blood” for “Human peripheral blood”, “Center, Oslo,” for “Center, Oslo.”, “selection using,” for “selection using”, “and 110.11,” for “and 110.11.”, “Calif., eat.” for “Calif., cat.”
# Proliferation assays were performed by incubation of 0.75×10^6 CM+ T cells/ml in a 100 μl volume in that-bottom 96-well microtiter plates. Activation was achieved by subsequent addition of monodisperse magnetic beads coated with sheep anti-mouse IgG (Dynal. cat. no. 110.02) at a cell:bead ratio of 1:1 followed by addition of antiCD3 (clone SpvT3b) at a final dilution of 1:125,000 for the experiments shown. The optimal concentration of antibody was titrated carefully in the initial setup and parallel experiments at several different dilutions of antibody was always performed. Proliferation was analyzed by incubating, cells for 72 hours during which [^3H]thymidine was included for the last 16 hours. Cells were washed and harvested onto filters using a Scatron harvester (Suffolk, UK) and subsequently analyzed by β-scintillation counting. cAMP analogs, when used, were added 30 min prior to activation by addition of […] antibodies. 8-CPT-cAMP was from Sigorna (St. Louis, Mo.) and Sp- and Rp-8-Br-cAMPS were from BioLog Life Science Company (Bremen, Germany) and were all dissolved to concentrations of 4 to 10 mM in PBS and concentrations calculated using the extinction coefficients given by the manufacturer.
# CD8+ T lymphocytes = test: BrdU incorporation (DNA synthesis) by flow cytometry, CD8+ subset; details: CVI patients and controls
# Protocol: as §1
# PBMC = test: anti-CD3 stimulated proliferation of PBMC
# Protocol: Whereas more than 100% increase in anti-CD3 induced lymphocyte proliferation was found in 7 of the CVI patients, 5 of the patients had less than 40% increase in proliferation when the cAMP antagonist was added to cells in vitro.
# IL-2 = IL-2 levels in supernatants from anti-CD3 stimulated T lymphocytes (ELISA)
# Protocol: After 20 h of culture, cellfree supernatants were harvested and stored at −80° C. until analysis. The IL-2 levels in supernatants were determined by an ELISA ([…], Minneapolis, Minn.).
# [2] = median in 7 CVI patients, 1000 μM
# [3] = median in 8 healthy controls, most pronounced effect at 100 μM
structure (smiles),measurement,setting,value
"Nc1ncnc2c1nc(Br)n2C1OC2COP(O)(=S)OC2C1O (stereo not drawn) [Rp-8-Br-cAMPS, Rp-8-Bromo-cAMP-phosphorothioate]",percent of BrdU+ CD4+ T lymphocytes,"CD4+ T lymphocytes; 8 CVI patients, with antagonist (without: 55.8 (40.7–77.0)%), maximal mostly at 1000 μM",69.6 (50.5–90.0) %
same,Effect on DNA synthesis in CD4+ lymphocytes,CD4+ T lymphocytes; healthy controls,No effect
same,Effect on IL-2 receptor binding,IL-2 receptor; CD4+ lymphocytes from CVI patients,moderate but significant increase
same,Effect on IL-2 receptor binding,IL-2 receptor; cells from healthy controls,No such increase
same,Proliferation level relative to levels in healthy controls,[1]; CVI patients' T cells with Rp-8-Br-cAMPS,~25%
same,IL-2 concentration with enhancing effect comparable to that of cAMP antagonist,"[1]; CVI patients, FIG. 7",~15 ng/mL
same,Combined enhancing effects of Rp-8-Br-cAMPS and IL-2 on T lymphocyte proliferation,"[1]; CVI patients, 1000 μM Rp-8-Br-cAMPS with IL-2",additive
same,Increase in proliferation by Rp-8-Br-cAMPS Fold increase compared to untreated,"[1]; T cells from HIV+ asymptomatic patients, n = 8, median (25 to 75% range)",1.50(1.29–1.73)^b fold
same,Increase in proliferation by Rp-8-Br-cAMPS Fold increase compared to untreated,"[1]; T cells from HIV+ symptomatic patients, n = 10, median (25 to 75% range)",1.62(1.48–2.00)^w fold
same,Increase in TCR/CD3-induced proliferation by antagonist alone,"[1]; T cells from HIV-infected patients, at higher concentrations, FIG. 3D",more than 2 fold
same,Reversal of Sp-8-Br-cAMPS inhibition of proliferation by complementary antagonist,"[1]; T cells from a HIV-infected patient, FIG. 3C",further increased the proliferation above the levels in untreated cells
same,Reversal of Sp-8-Br-cAMPS inhibition of proliferation by complementary antagonist,"[1]; T cells from normal blood donors / healthy controls, increasing concentrations",almost completely reversed
same,Increase in proliferation by Rp-8-Br-cAMPS Fold increase compared to untreated,"[1]; T cells from normal controls, n = 8, median (25 to 75% range)",1.01(0.93–1.14) fold
same,Increase in proliferation by Rp-8-Br-cAMPS Fold increase compared to untreated,"[1]; T cells from patients on triple combination therapy, n = 9, median (25 to 75% range)",1.53(1.11–1.77)^o fold
same,Increase in proliferation by Rp-8-Br-cAMPS (fold increase),[1]; T cells of individual CVI patients #1-#7,1.73 fold and 2.10 fold and 1.87 fold and 1.34 fold and 1.37 fold and 2.45 fold and 3.67 fold
same,Increase in proliferation by Rp-8-Br-cAMPS Fold increase compared to untreated,[1]; T cells of individual HIV-infected patients #1-#18 without protease inhibitor therapy (Table 2a),2.81 fold and 2.02 fold and 2.73 fold and 1.48 fold and 1.77 fold and 1.96 fold and 1.5 fold and 1.79 fold and 1.74 fold and 1.3 fold and 1.49 fold and 1.43 fold and 1.46 fold and 1.67 fold and 1.6 fold and 1.27 fold and 1.39 fold and 1.16 fold
same,Increase in proliferation by Rp-8-Br-cAMPS Fold increase compared to untreated,[1]; T cells of individual patients #1-#9 receiving highly active antiretroviral therapy (Table 2b),2.79 fold and 2.65 fold and 1.77 fold (2×) and 1.53 fold and 1.04 fold and 1.52 fold and 0.98 fold and 1.11 fold
same,Increase in proliferation by Rp-8-Br-cAMPS (fold increase),[1]; median in 7 CVI patients,1.87^+ fold
same,Increase in proliferation by Rp-8-Br-cAMPS (fold increase),[1]; median in 8 healthy controls,1.01 fold
same,Effect of antagonist alone on stimulated proliferation,[1]; normal T cells / healthy controls,No increased T cell proliferation; also recorded: did not alter proliferation; also recorded: did not further enhance T cell proliferation
same,Increase in anti-CD3 stimulated proliferation,"[1]; purified T cells, 3 of 7 CVI patients",> 100%
same,Change in percent of BrdU+ CD8+ cells,CD8+ T lymphocytes,no significant increase
same,Increase in anti-CD3 induced lymphocyte proliferation,PBMC; 5 of the 20 CVI patients,less than 40%
same,Increase in anti-CD3 induced lymphocyte proliferation,PBMC; 7 of the 20 CVI patients,more than 100%
same,Effect on anti-CD3 stimulated lymphocyte proliferation,PBMC; CVI group,significant and concentration-dependent improvement
same,Effect on anti-CD3 stimulated lymphocyte proliferation,PBMC; normal blood donors,did not significantly alter proliferation
same,Effect on IL-2 levels in supernatants,IL-2; T lymphocytes from CVI patients,marked and concentration-dependent increase
same,Increase in IL-2 level by Rp-8-Br-cAMPS (fold increase),"IL-2; individual CVI patients #1-#7, 1000 μM, 20 h culture",4.50 fold and 4.37 fold and 2.66 fold and 2.49 fold and 2.34 fold and 1.89 fold and 1.77 fold
same,Highest IL-2 level when adding Rp-8-Br-cAMPS,"IL-2; individual CVI patients #1-#7, highest at 1000 μM, 20 h culture",144 pg/mL and 284 pg/mL and 210 pg/mL and 249 pg/mL and 262 pg/mL and 246 pg/mL and 232 pg/mL
same,Highest IL-2 level when adding Rp-8-Br-cAMPS,IL-2; [2],246^+ pg/mL
same,Increase in IL-2 level by Rp-8-Br-cAMPS (fold increase),IL-2; [2],2.50^+ fold
same,Highest IL-2 level when adding Rp-8-Br-cAMPS,IL-2; [3],799 pg/mL
same,Increase in IL-2 level by Rp-8-Br-cAMPS (fold increase),IL-2; [3],1.28 fold
